Data published in patent US20260191968A1, “PROTAC DEGRADERS OF MLLT1 AND/OR MLLT3” (DARK BLUE THERAPEUTICS LTD, priority 2024, published 2026).

Target: T1, MLLT1 (Homo sapiens, UniProt Q03111)
T1 construct: host or cells: MV4-11
T1 sequence (Q03111 1-559): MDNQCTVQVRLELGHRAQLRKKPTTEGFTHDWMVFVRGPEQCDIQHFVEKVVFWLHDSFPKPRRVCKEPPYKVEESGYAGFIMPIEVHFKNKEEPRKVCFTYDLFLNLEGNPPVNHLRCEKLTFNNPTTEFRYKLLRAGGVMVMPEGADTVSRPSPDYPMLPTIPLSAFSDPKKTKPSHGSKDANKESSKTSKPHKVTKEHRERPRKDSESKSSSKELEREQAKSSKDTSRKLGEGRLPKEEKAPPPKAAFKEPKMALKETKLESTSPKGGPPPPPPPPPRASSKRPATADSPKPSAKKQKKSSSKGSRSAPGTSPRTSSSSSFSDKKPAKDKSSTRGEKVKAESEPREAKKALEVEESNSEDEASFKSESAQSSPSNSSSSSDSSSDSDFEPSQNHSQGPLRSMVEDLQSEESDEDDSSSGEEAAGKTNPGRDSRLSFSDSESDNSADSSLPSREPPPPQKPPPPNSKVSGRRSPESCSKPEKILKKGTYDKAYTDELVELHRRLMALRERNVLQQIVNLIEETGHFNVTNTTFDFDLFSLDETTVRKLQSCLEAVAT
Experiment: MLLT1 degradation assay in MV4-11 cells (JESS chemiluminescent detection), three concentrations, 24 h
Assay type: cell-based
Details: with respect to DMSO control
Description: MLLT1 degradation efficacy of compounds were tested in an automated chemiluminescent detection system (JESS, Cat #004-650). […] 10 mM DMSO stocks were prepared, and cells were treated with three concentrations of test compounds viz. 1000, 100 and 10 nM at a final DMSO concentration of 0.1% and incubated for 24 h at 37° C., 5% CO2. […] Post run, data were analysed using “Compass for SW” software for chemiluminescent detection. The peak area for each band was used for the calculation of MLLT1 degradation with respect to DMSO control. Data is shown as “MLLT1% degradation”.

MLLT1% Degradation @ 0.1 μM | SMILES | MLLT1% Degradation @ 0.01 μM | MLLT1% Degradation @ 1 μM
A (Category A: A ≥ 75% degradation) | CN1CCC[C@@H]1c1[nH]c2cc(NC(=O)c3ccc(N4CCN(CC#Cc5cccc6c5CN(C5CCC(=O)NC5=O)C6=O)CC4)nc3)ncc2c1Cl (stereo partly drawn) [Example 72, N-(3-chloro-2-((R)-1-methylpyrrolidin-2-yl)-1H-pyrrolo[3,2-c]pyridin-6-yl)-6-(4-(3-(2-(2,6-dioxopiperidin-3-yl)-1-oxoisoindolin-4-yl)prop-2-yn-1-yl)piperazin-1-yl)nicotinamide] | A (Category A: A ≥ 75% degradation) | C (Category C: 25% ≤ C < 50% degradation)
A (Category A: A ≥ 75% degradation) | CCN1CCC[C@@H]1c1cc2cnc(NC(=O)c3ccc(N4CCC(CC#Cc5cccc6c5CN(C5CCC(=O)NC5=O)C6=O)CC4)nc3)cc2[nH]1 (stereo partly drawn) [Example 73, 6-(4-(3-(2-(2,6-dioxopiperidin-3-yl)-1-oxoisoindolin-4-yl)prop-2-yn-1-yl)piperidin-1-yl)-N-(2-((R)-1-ethylpyrrolidin-2-yl)-1H-pyrrolo[3,2-c]pyridin-6-yl)nicotinamide] | B (Category B: 50% ≤ B < 75% degradation) | B (Category B: 50% ≤ B < 75% degradation)
A (Category A: A ≥ 75% degradation) | CN1CCC[C@@H]1c1cc2cnc(NC(=O)c3cc(F)c(CCCC#Cc4cccc5c4CN(C4CCC(=O)NC4=O)C5=O)c(F)c3)cc2[nH]1 (stereo partly drawn) [Example 84, 4-(5-(2-(2,6-dioxopiperidin-3-yl)-1-oxoisoindolin-4-yl)pent-4-yn-1-yl)-3,5-difluoro-N-(2-((R)-1-methylpyrrolidin-2-yl)-1H-pyrrolo[3,2-c]pyridin-6-yl)benzamide] | B (Category B: 50% ≤ B < 75% degradation) | A (Category A: A ≥ 75% degradation)
A (Category A: A ≥ 75% degradation) | CN1CCC[C@@H]1c1cc2cnc(NC(=O)c3ccc(CCCC#Cc4cc5c(cc4F)C(=O)N(C4CCC(=O)NC4=O)C5)cc3)cc2[nH]1 (stereo partly drawn) [Example 106, 4-(5-(2-(2,6-dioxopiperidin-3-yl)-6-fluoro-1-oxoisoindolin-5-yl)pent-4-yn-1-yl)-N-(2-((R)-1-methylpyrrolidin-2-yl)-1H-pyrrolo[3,2-c]pyridin-6-yl)benzamide] | B (Category B: 50% ≤ B < 75% degradation) | A (Category A: A ≥ 75% degradation)
A (Category A: A ≥ 75% degradation) | CN1CCC[C@@H]1c1cc2cnc(NC(=O)c3ccc(CCCC#Cc4cccc5c4C(=O)N(C4CCC(=O)NC4=O)C5=O)cc3)cc2[nH]1 (stereo partly drawn) [Example 110, 4-(5-(2-(2,6-dioxopiperidin-3-yl)-1,3-dioxoisoindolin-4-yl)pent-4-yn-1-yl)-N-(2-((R)-1-methylpyrrolidin-2-yl)-1H-pyrrolo[3,2-c]pyridin-6-yl)benzamide] | C (Category C: 25% ≤ C < 50% degradation) | A (Category A: A ≥ 75% degradation)

The remaining lines, values behind:

SMILES | MLLT1% Degradation @ 0.1 μM | MLLT1% Degradation @ 0.01 μM | MLLT1% Degradation @ 1 μM
CN1CCCC1c1cc2cnc(NC(=O)c3ccc(OCC#Cc4cccc5c4CN(C4CCC(=O)NC4=O)C5=O)cn3)cc2[nH]1 (stereo not drawn) [Example 50, 5-[3-[2-(2,6-dioxo-3-piperidyl)-1-oxo-isoindolin-4-yl]prop-2-ynoxy]-N-[2-(1-methylpyrrolidin-2-yl)-1H-pyrrolo[3,2-c]pyridin-6-yl]pyridine-2-carboxamide] | B (Category B: 50% ≤ B < 75% degradation) | B (Category B: 50% ≤ B < 75% degradation) | B (Category B: 50% ≤ B < 75% degradation)
CN1CCC[C@@H]1c1cc2cnc(NC(=O)c3ccc(-c4cnn(CCCC#Cc5cccc(C(=O)N[C@H]6CCC(=O)NC6=O)n5)c4)cc3)cc2[nH]1 [Example 62, N—((S)-2,6-dioxopiperidin-3-yl)-6-(5-(4-(4-((2-((R)-1-methylpyrrolidin-2-yl)-1H-pyrrolo[3,2-c]pyridin-6-yl)carbamoyl)phenyl)-1H-pyrazol-1-yl)pent-1-yn-1-yl) picolinamide] | A (Category A: A ≥ 75% degradation) | B (Category B: 50% ≤ B < 75% degradation) | B (Category B: 50% ≤ B < 75% degradation)
CN1CCC[C@@H]1c1cc2cnc(NC(=O)c3ccc(CCCC#Cc4cccc(N5CCC(=O)NC5=O)n4)cc3)cc2[nH]1 [Example 63, (R)-4-(5-(6-(2,4-dioxotetrahydropyrimidin-1(2H)-yl)pyridin-2-yl)pent-4-yn-1-yl)-N-(2-(1-methylpyrrolidin-2-yl)-1H-pyrrolo[3,2-c]pyridin-6-yl)benzamide] | D (Category D: D < 25% degradation) | D (Category D: D < 25% degradation) | C (Category C: 25% ≤ C < 50% degradation)
CN1CCC[C@@H]1c1cc2cnc(NC(=O)c3ccc(N4CCC(N5CCN(c6cccc7c6C(=O)N(C6CCC(=O)NC6=O)C7=O)CC5)CC4)nc3)cc2[nH]1 (stereo partly drawn) [Example 64, 6-(4-(4-(2-(2,6-dioxopiperidin-3-yl)-1,3-dioxoisoindolin-4-yl)piperazin-1-yl)piperidin-1-yl)-N-(2-((R)-1-methylpyrrolidin-2-yl)-1H-pyrrolo[3,2-c]pyridin-6-yl)nicotinamide] | B (Category B: 50% ≤ B < 75% degradation) | B (Category B: 50% ≤ B < 75% degradation) | A (Category A: A ≥ 75% degradation)
Cc1ncsc1-c1ccc(CNC(=O)[C@@H]2C[C@@H](O)CN2C(=O)[C@@H](NC(=O)CCCCCCCCCCNC(=O)c2ccc(C(=O)Nc3cc4[nH]c([C@H]5CCCN5C)cc4cn3)cc2)C(C)(C)C)cc1 [Example 69, (2S,4R)-1-[(2S)-3,3-dimethyl-2-(11-{[4-({2-[(2R)-1-methylpyrrolidin-2-yl]-1H-pyrrolo[3,2-c]pyridin-6-yl}carbamoyl)phenyl]formamido}undecanamido)butanoyl]-4-hydroxy-N-{[4-(4-methyl-1,3-thiazol-5-yl)phenyl]methyl}pyrrolidine-2-carboxamide] | C (Category C: 25% ≤ C < 50% degradation) | C (Category C: 25% ≤ C < 50% degradation) | C (Category C: 25% ≤ C < 50% degradation)
CN1CCC[C@@H]1c1[nH]c2cc(NC(=O)c3ccc(CCCCC#Cc4cccc5c4CN(C4CCC(=O)NC4=O)C5=O)nc3)ncc2c1Cl (stereo partly drawn) [Example 71, N-(3-chloro-2-((R)-1-methylpyrrolidin-2-yl)-1H-pyrrolo[3,2-c]pyridin-6-yl)-6-(6-(2-(2,6-dioxopiperidin-3-yl)-1-oxoisoindolin-4-yl)hex-5-yn-1-yl) nicotinamide] | A (Category A: A ≥ 75% degradation) | A (Category A: A ≥ 75% degradation) | B (Category B: 50% ≤ B < 75% degradation)
CCN1CCC[C@@H]1c1cc2cnc(NC(=O)c3ccc(CCCCC#Cc4cccc5c4CN(C4CCC(=O)NC4=O)C5=O)nc3)cc2[nH]1 (stereo partly drawn) [Example 74, 6-(6-(2-(2,6-dioxopiperidin-3-yl)-1-oxoisoindolin-4-yl)hex-5-yn-1-yl)-N-(2-((R)-1-ethylpyrrolidin-2-yl)-1H-pyrrolo[3,2-c]pyridin-6-yl) nicotinamide] | B (Category B: 50% ≤ B < 75% degradation) | B (Category B: 50% ≤ B < 75% degradation) | B (Category B: 50% ≤ B < 75% degradation)
CN1CCC[C@@H]1c1cc2cnc(NC(=O)c3ccc(N4CCC(CN5CCN(c6cccc7c6CN(C6CCC(=O)NC6=O)C7=O)CC5)CC4)cc3)cc2[nH]1 (stereo partly drawn) [Example 92, 4-(4-((4-(2-(2,6-dioxopiperidin-3-yl)-1-oxoisoindolin-4-yl)piperazin-1-yl)methyl)piperidin-1-yl)-N-(2-((R)-1-methylpyrrolidin-2-yl)-1H-pyrrolo[3,2-c]pyridin-6-yl)benzamide] | B (Category B: 50% ≤ B < 75% degradation) | B (Category B: 50% ≤ B < 75% degradation) | B (Category B: 50% ≤ B < 75% degradation)
CN1CCC[C@@H]1c1cc2cnc(NC(=O)c3ccc(CCCC#Cc4cccc(C(=O)N[C@H]5CCC(=O)NC5=O)n4)cc3)cc2[nH]1 [Example 97, N—((S)-2,6-dioxopiperidin-3-yl)-6-(5-(4-((2-((R)-1-methylpyrrolidin-2-yl)-1H-pyrrolo[3,2-c]pyridin-6-yl)carbamoyl)phenyl)pent-1-yn-1-yl)picolinamide] | B (Category B: 50% ≤ B < 75% degradation) | C (Category C: 25% ≤ C < 50% degradation) | B (Category B: 50% ≤ B < 75% degradation)
